In US20240285571A1, “METHODS OF TREATING BONE INFECTIONS” (MICROBION CORPORATION, priority 2020, published 2024):

Assays:
Assay in all cases: MIC of baseline clinical isolates (Example 8)
Type in all cases: cell-based
[1] = system: S. aureus (MRSA, MSSA); details: Staphylococcus aureus, MRSA baseline isolates (N′ = 4), central laboratory, mITT
Summary of the method: (§1)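 Isolates came from samples taken on Day 1 and at any later surgery at the index site: infected bone or tissue next to implants, deep infection-site swabs, and superficial tissue, wound closure or sinus tract. Local clinical laboratories analysed parallel sample sets to guide antibiotic treatment.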

[2] = system: S. epidermidis; details: Staphylococcus epidermidis baseline isolates (N′ = 5), central laboratory, mITT
Summary of the method: as §1

[3] = system: Staphylococcus arlettae; details: Staphylococcus arlettae baseline isolates (N′ = 1), central laboratory, mITT
Summary of the method: as §1

[4] = system: Staphylococcus haemolyticus; details: Staphylococcus haemolyticus baseline isolates (N′ = 1), central laboratory, mITT
Summary of the method: as §1

[5] = system: Staphylococcus hominis; details: Staphylococcus hominis baseline isolates (N′ = 1), central laboratory, mITT
Summary of the method: as §1

[6] = system: Staphylococcus lugdunensis; details: Staphylococcus lugdunensis baseline isolates (N′ = 3), central laboratory, mITT
Summary of the method: as §1

[7] = system: Staphylococcus pasteuri; details: Staphylococcus pasteuri baseline isolates (N′ = 1), central laboratory, mITT
Summary of the method: as §1

[8] = system: Corynebacterium amycolatum; details: Corynebacterium amycolatum baseline isolates (N′ = 1), central laboratory, mITT
Summary of the method: (§2)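 Clinical isolates, aerobic and anaerobic, from infected bone/implant-adjacent tissue and deep or superficial wound sites (Day 1 and subsequent index-site surgeries); identified centrally; MBN-101 (BisEDT) susceptibility per CLSI.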

[9] = system: Corynebacterium jeikeium; details: Corynebacterium jeikeium baseline isolates (N′ = 2), central laboratory, mITT
Summary of the method: as §2

[10] = system: Corynebacterium resistens; details: Corynebacterium resistens baseline isolates (N′ = 1), central laboratory, mITT
Summary of the method: as §2

[11] = system: Dermabacter hominis; details: Dermabacter hominis baseline isolates (N′ = 1), central laboratory, mITT
Summary of the method: as §2

[12] = system: Streptococcus oralis; details: Streptococcus oralis baseline isolates (N′ = 1), central laboratory, mITT
Summary of the method: as §2

[13] = system: non-speciated Corynebacterium; details: Corynebacterium non-speciated baseline isolates (N′ = 2), central laboratory, mITT
Summary of the method: as §2

[14] = system: Actinomyces turicensis; details: Actinomyces turicensis baseline isolates (N′ = 1), central laboratory, mITT
Summary of the method: as §1

[15] = system: Anaerococcus murdochii; details: Anaerococcus murdochii baseline isolates (N′ = 1), central laboratory, mITT
Summary of the method: as §1

[16] = system: Clostridium sphenoides; details: Clostridium sphenoides baseline isolates (N′ = 1), central laboratory, mITT
Summary of the method: as §1

[17] = system: Cutibacterium [Propionibacterium] acnes; details: Cutibacterium (Proprionibacterium) acnes baseline isolates (N′ = 3), central laboratory, mITT
Summary of the method: as §1

[18] = system: F. magna; details: Finegoldia magna baseline isolates (N′ = 4), central laboratory, mITT
Summary of the method: as §1

[19] = system: Peptoniphilus gorbachii; details: Peptoniphilus gorbachii baseline isolates (N′ = 1), central laboratory, mITT
Summary of the method: as §1

[20] = system: non-speciated Anaerococcus; details: Anaerococcus non-speciated baseline isolates (N′ = 1), central laboratory, mITT
Summary of the method: as §1

Compound: C[C@H]1COc2c(N3CCN(C)CC3)c(F)cc3c(=O)c(C(=O)O)cn1c23 [Levofloxacin]
- MIC [1]: 8 µg/mL
- n (% resistant) [1]: 4 (100.0) n (%)
- MIC [2]: 2.52 µg/mL
- n (% resistant) [2]: 2 (40.0) n (%)
- MIC [3]: 0.5 µg/mL
- n (% resistant) [3]: 0 (0.0) n (%)
- MIC [4]: 8 µg/mL
- n (% resistant) [4]: 1 (100.0) n (%)
- MIC [5]: 8 µg/mL
- n (% resistant) [5]: 1 (100.0) n (%)
- MIC [6]: 0.92 µg/mL
- n (% resistant) [6]: 0 (0.0) n (%)
- MIC [7]: 0.25 µg/mL
- n (% resistant) [7]: 0 (0.0) n (%)
- MIC [8]: 8 µg/mL
- n (% resistant) [8]: 0 (0.0) n (%)
- MIC [9]: 0.18 µg/mL
- n (% resistant) [9]: 0 (0.0) n (%)
- MIC [10]: 0.12 µg/mL
- n (% resistant) [10]: 0 (0.0) n (%)
- MIC [11]: 1 µg/mL
- n (% resistant) [11]: 0 (0.0) n (%)
- MIC [12]: 2 µg/mL
- n (% resistant) [12]: 0 (0.0) n (%)
- MIC [13]: 0.18 µg/mL
- n (% resistant) [13]: 0 (0.0) n (%)

Compound: C[C@@H](O)[C@H]1C(=O)N2C(C(=O)O)=C(S[C@@H]3CN[C@H](C(=O)N(C)C)C3)[C@H](C)[C@H]12 [Meropenem]
- n (% resistant) [14]: 0 (0.0) n (%)
- MIC ([14]; Schaalia turicensis): 0.25 µg/mL
- MIC [15]: 0.06 µg/mL
- n (% resistant) [15]: 0 (0.0) n (%)
- n (% resistant) [16]: 0 (0.0) n (%)
- MIC ([16]; Lacrimispora sphenoides): 2 µg/mL
- MIC [17]: 0.06 µg/mL
- n (% resistant) [17]: 0 (0.0) n (%)
- MIC [18]: 0.06 µg/mL
- n (% resistant) [18]: 0 (0.0) n (%)
- MIC [19]: 0.06 µg/mL
- n (% resistant) [19]: 0 (0.0) n (%)
- MIC [20]: 0.25 µg/mL
- n (% resistant) [20]: 0 (0.0) n (%)

Compound: CCC[C@@H]1C[C@@H](C(=O)N[C@@H]([C@H]2O[C@H](SC)[C@H](O)[C@@H](O)[C@H]2O)[C@H](C)Cl)N(C)C1 [CLI]
- Mean MIC [14]: 0.25 µg/mL
- n (% resistant) [14]: 0 (0.0) n (%)
- Mean MIC [15]: 8.00 µg/mL
- n (% resistant) [15]: 1 (100.0) n (%)
- Mean MIC [16]: 8.00 µg/mL
- n (% resistant) [16]: 1 (100.0) n (%)
- Mean MIC [17]: 0.25 µg/mL
- n (% resistant) [17]: 0 (0.0) n (%)
- Mean MIC [18]: 4.38 µg/mL
- n (% resistant) [18]: 2 (50.0) n (%)
- Mean MIC [19]: 8.00 µg/mL
- n (% resistant) [19]: 1 (100.0) n (%)
- Mean MIC [1]: 4.16 µg/mL
- n (% resistant) [1]: 1 (25.0) n (%)
- Mean MIC [2]: 3.66 µg/mL
- n (% resistant) [2]: 1 (20.0) n (%)
- Mean MIC [3]: 0.25 µg/mL
- n (% resistant) [3]: 0 (0.0) n (%)
- Mean MIC [4]: 8.00 µg/mL
- n (% resistant) [4]: 1 (100.0) n (%)
- Mean MIC [5]: 0.12 µg/mL
- n (% resistant) [5]: 0 (0.0) n (%)
- Mean MIC [6]: 0.03 µg/mL
- n (% resistant) [6]: 0 (0.0) n (%)
- Mean MIC [7]: 1.00 µg/mL
- n (% resistant) [7]: 1 (100.0) n (%)
- Mean MIC [20]: 0.25 µg/mL
- n (% resistant) [20]: 0 (0.0) n (%)
- Mean MIC [8]: 2.00 µg/mL
- n (% resistant) [8]: 1 (100.0) n (%)
- Mean MIC [9]: 2.00 µg/mL
- n (% resistant) [9]: 2 (100.0) n (%)
- Mean MIC [10]: 0.50 µg/mL
- n (% resistant) [10]: 0 (0.0) n (%)
- Mean MIC [11]: 0.50 µg/mL
- n (% resistant) [11]: 0 (0.0) n (%)
- Mean MIC [12]: 0.03 µg/mL
- n (% resistant) [12]: 0 (0.0) n (%)
- Mean MIC [13]: 1.06 µg/mL
- n (% resistant) [13]: 1 (50.0) n (%)
